Results as given in US11739350B2 (priority 2018, dated 2023).

System: HPAFII tumours
Set-up: species or system SCID mice
Conditions: mouse, in vivo, ip

With GSK126 the tumor volumes was 1609.3 mm^3.
